{
  "source": "paper PMC10714400",
  "about": "“Antimicrobial Peptide–Peptoid Hybrids with and without Membrane Disruption” (ACS Infectious Diseases, 2023)",
  "key": {"A. baumannii ATCC19606": {"test_system": "A. baumannii ATCC19606", "in_short": "(§1)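 MTT added (20–30 min, room temperature); MIC read by eye as lowest concentration inhibiting visible growth (yellow). Polymyxin B positive control from 16 μg/mL.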"}, "E. cloacae": {"test_system": "E. cloacae", "details": "Table S3; […] MH at pH 8.5", "in_short": "(§2)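 MIC read visually after MTT staining: lowest compound concentration preventing visible growth (yellow wells). Inoculum ~5 × 10^5 CFU per well in MH broth; static incubation at 37 °C for ca. 18 h.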"}, "E. coli W3110": {"test_system": "E. coli W3110", "in_short": "as §2"}, "K. pneumoniae NCTC418": {"test_system": "K. pneumoniae NCTC418", "in_short": "as §1"}, "K. pneumoniae OXA-48": {"test_system": "K. pneumoniae OXA-48", "details": "Table S3; […] MH at pH 8.5", "in_short": "as §2"}, "P. aeruginosa PAO1 [1]": {"test_system": "P. aeruginosa PAO1", "in_short": "as §2"}, "PA14 2P4 (pmrB)": {"test_system": "PA14 2P4 (pmrB)", "details": "diluted MH ([…] MH) at pH 8.5 (Table 2 footnote b)", "in_short": "as §2"}, "PA14 4.13 (phoQ)": {"test_system": "PA14 4.13 (phoQ)", "details": "diluted MH ([…] MH) at pH 8.5 (Table 2 footnote b)", "in_short": "as §2"}, "PA14 4.18 (pmrB)": {"test_system": "PA14 4.18 (pmrB)", "details": "diluted MH ([…] MH) at pH 8.5 (Table 2 footnote b)", "in_short": "as §2"}, "S. aureus COL (MRSA)": {"test_system": "S. aureus COL (MRSA)", "details": "Table S2", "in_short": "as §2"}, "[2]": {"test_system": "ZEM-1A (clinical MDR P. aeruginosa isolate)", "details": "Table S3; […] MH at pH 8.5", "in_short": "as §2"}, "[3]": {"test_system": "ZEM9A (clinical MDR P. aeruginosa isolate)", "details": "Table S3; […] MH at pH 8.5", "in_short": "as §2"}, "[4]": {"assay": "Circular dichroism, α-helical content", "assay_type": "physicochemical", "details": "0.1 mg/mL; for CD %α with 5 mM DPC: 10 mM phosphate buffer pH 7.4, 5 mM DPC; for CD %α with 20% TFE: 10 mM phosphate buffer pH 7.4, 20% TFE"}, "B. cenocepacia": {"test_system": "B. cenocepacia", "details": "4 h, pH 8.5", "in_short": "as §2"}, "P. aeruginosa PA14": {"test_system": "P. aeruginosa PA14", "details": "Table S3; […] MH at pH 8.5, 16-20 hours at 37 °C", "in_short": "as §2"}, "S. aureus Newman": {"test_system": "S. aureus Newman", "details": "Table S3; […] MH at pH 8.5", "in_short": "as §2"}, "S. epidermis": {"test_system": "S. epidermis", "details": "Table S3; […] MH at pH 8.5", "in_short": "as §2"}, "S. maltophilia": {"test_system": "S. maltophilia", "details": "Table S3; […] MH at pH 8.5", "in_short": "as §2"}, "P. aeruginosa PAO1 [5]": {"test_system": "P. aeruginosa PAO1", "assay": "Bacterial count after treatment, before TEM sample preparation", "assay_type": "cell-based, Pseudomonas aeruginosa", "details": "P. aeruginosa PAO1, […] MH pH 8.5, 10x MIC", "description": "(§3) Just before the samples were further prepared for the microscopy, surviving bacteria were quantified by plating 10-fold dilutions of samples in sterilized normal saline (NaCl 0.9%) on LB agar plates. […] The assay was performed in triplicate. Each bacteria sample was centrifuged at 12,000 rpm for 3 min, and the supernatant was discarded. The samples were then further processed and imaged using our previously described protocol.[64]\n8. Transmission electron microscopy (TEM)\nTable S4: Bacterial counts, 2 hours after treatment, before TEM sample preparation. Data represents triplicates.\nBacteria count after treatment at 10x MIC and 2 h of incubation at 37 °C\nControl (non-treated cells) 1 × 10^8 CFU (100)"}, "P. aeruginosa PAO1 [6]": {"test_system": "P. aeruginosa PAO1", "assay": "Transmission electron microscopy (TEM)", "assay_type": "cell-based, Pseudomonas aeruginosa", "details": "P. aeruginosa PAO1, 10 × MIC, […] MH at pH 8.5, 2 h at 37 °C", "description": "Scale bars are 500 nm and 1 μm. Red arrows: membrane perturbations. Blue arrows: intracellular aggregation. Yellow arrows: empty area within the cell.\nas §3"}},
  "data": [
    {"substance": "H-VDKPPYLPRPRPPRRIYNR-NH2 [Onc, reference compound]", "values": [
      {"measurement": "MIC A. baumannii ATCC19606 Full MH 8.5", "setting": "A. baumannii ATCC19606; ATCC19606, 4 h, pH 8.5", "result": 8, "unit": "µg/mL"},
      {"measurement": "MIC A. baumannii ATCC19606 […] 7.4", "setting": "A. baumannii ATCC19606; Table S2, […] MH, pH 7.4", "result": 4, "unit": "µg/mL"},
      {"measurement": "MIC A. baumannii ATCC19606 […] 8.5", "setting": "A. baumannii ATCC19606; Table S2, […] MH, pH 8.5", "result": 4, "unit": "µg/mL"},
      {"measurement": "MIC A. baumannii ATCC19606 Full MH 7.4", "setting": "A. baumannii ATCC19606; Table S2, full MH, pH 7.4", "result": 32, "unit": "µg/mL"},
      {"measurement": "Activity increase in dilute medium", "setting": "A. baumannii ATCC19606; […] MH vs full MH, A. baumannii", "result": 4, "unit": "fold"},
      {"measurement": "MIC E. cloacae", "setting": "E. cloacae", "result": 2, "unit": "µg/mL"},
      {"measurement": "Antibacterial activity as a function of NaCl concentration", "setting": "E. coli W3110; E. coli W3110, […] MH at pH 8.5, up to 300 mM NaCl", "result": "strongly reduced"},
      {"measurement": "MIC E. coli W3110 […] 7.4", "setting": "E. coli W3110; Table S2, […] MH, pH 7.4", "result": 1, "unit": "µg/mL"},
      {"measurement": "MIC E. coli W3110 […] 8.5", "setting": "E. coli W3110; Table S2, […] MH, pH 8.5", "result": 1, "unit": "µg/mL"},
      {"measurement": "MIC E. coli W3110 Full MH 7.4", "setting": "E. coli W3110; Table S2, full MH, pH 7.4", "result": 4, "unit": "µg/mL"},
      {"measurement": "MIC E. coli W3110 Full MH 8.5", "setting": "E. coli W3110; Table S2, full MH, pH 8.5", "result": 1, "unit": "µg/mL"},
      {"measurement": "Activity increase in dilute medium", "setting": "E. coli W3110; […] MH vs full MH, E. coli", "result": 4, "unit": "fold"},
      {"measurement": "MIC K. pneumoniae NCTC418 […] 7.4", "setting": "K. pneumoniae NCTC418; Table S2, […] MH, pH 7.4", "result": 1, "unit": "µg/mL"},
      {"measurement": "MIC K. pneumoniae NCTC418 […] 8.5", "setting": "K. pneumoniae NCTC418; Table S2, […] MH, pH 8.5", "result": 1, "unit": "µg/mL"},
      {"measurement": "MIC K. pneumoniae NCTC418 Full MH 7.4", "setting": "K. pneumoniae NCTC418; Table S2, full MH, pH 7.4", "result": 4, "unit": "µg/mL"},
      {"measurement": "MIC K. pneumoniae NCTC418 Full MH 8.5", "setting": "K. pneumoniae NCTC418; Table S2, full MH, pH 8.5", "result": 4, "unit": "µg/mL"},
      {"measurement": "Activity increase in dilute medium", "setting": "K. pneumoniae NCTC418; […] MH vs full MH, K. pneumoniae", "result": 4, "unit": "fold"},
      {"measurement": "MIC K. pneumoniae OXA-48", "setting": "K. pneumoniae OXA-48", "result": 1, "unit": "µg/mL"},
      {"measurement": "Antibacterial activity as a function of NaCl concentration", "setting": "P. aeruginosa PAO1 [1]; P. aeruginosa PAO1, […] MH at pH 8.5, up to 300 mM NaCl", "result": "strongly reduced"},
      {"measurement": "MIC P. aeruginosa PAO1 […] 7.4", "setting": "P. aeruginosa PAO1 [1]; Table S2, […] MH, pH 7.4", "result": 32, "unit": "µg/mL"},
      {"measurement": "MIC P. aeruginosa PAO1 Full MH 7.4", "setting": "P. aeruginosa PAO1 [1]; Table S2, full MH, pH 7.4", "result": "> 32", "unit": "µg/mL"},
      {"measurement": "MIC P. aeruginosa PAO1 Full MH 8.5", "setting": "P. aeruginosa PAO1 [1]; Table S2, full MH, pH 8.5", "result": "> 32", "unit": "µg/mL"},
      {"measurement": "MIC PA14 2P4 (pmrB)", "setting": "PA14 2P4 (pmrB)", "result": 2, "unit": "µg/mL"},
      {"measurement": "MIC PA14 4.13 (phoQ)", "setting": "PA14 4.13 (phoQ)", "result": 2, "unit": "µg/mL"},
      {"measurement": "MIC PA14 4.18 (pmrB)", "setting": "PA14 4.18 (pmrB)", "result": 2, "unit": "µg/mL"},
      {"measurement": "MIC S. aureus COL (MRSA) […] 7.4", "setting": "S. aureus COL (MRSA); […] MH, pH 7.4", "result": 32, "unit": "µg/mL"},
      {"measurement": "MIC S. aureus COL (MRSA) Full MH 7.4", "setting": "S. aureus COL (MRSA); full MH, pH 7.4", "result": "> 32", "unit": "µg/mL"},
      {"measurement": "MIC S. aureus COL (MRSA) Full MH 8.5", "setting": "S. aureus COL (MRSA); full MH, pH 8.5", "result": "> 32", "unit": "µg/mL"},
      {"measurement": "MIC P. aeruginosa ZEM-1A", "setting": "[2]", "result": 2, "unit": "µg/mL"},
      {"measurement": "MIC P. aeruginosa ZEM9A", "setting": "[3]", "result": 16, "unit": "µg/mL"},
      {"measurement": "CD %α with 5 mM DPC", "setting": "[4]; DichroWeb, Contin-LL", "result": 20, "unit": "%"},
      {"measurement": "CD %α with 20% TFE", "setting": "[4]; DichroWeb, Contin-LL", "result": 23, "unit": "%"},
      {"measurement": "CD %α with 5 mM DPC", "setting": "[4]; Table S2", "result": 20, "unit": "%"},
      {"measurement": "CD %α with 20% TFE", "setting": "[4]; Table S2", "result": 23, "unit": "%"},
      {"measurement": "MIC B. cenocepacia", "setting": "B. cenocepacia", "result": 32, "unit": "µg/mL"},
      {"measurement": "MIC P. aeruginosa PA14", "setting": "P. aeruginosa PA14", "result": 2, "unit": "µg/mL"},
      {"measurement": "MIC S. aureus Newman", "setting": "S. aureus Newman", "result": 1, "unit": "µg/mL"},
      {"measurement": "MIC S. epidermis", "setting": "S. epidermis", "result": 4, "unit": "µg/mL"},
      {"measurement": "MIC S. maltophilia", "setting": "S. maltophilia", "result": "> 32", "unit": "µg/mL"},
      {"measurement": "Bacteria count after treatment at 10x MIC and 2 h of incubation at 37 °C (% of control)", "setting": "P. aeruginosa PAO1 [5]", "result": "0.01 % of control"},
      {"measurement": "TEM micrographs, changes in treated bacteria", "setting": "P. aeruginosa PAO1 [6]", "result": "aggregation of intracellular components"}
    ]}
  ]
}
